Laboratory results taken from ChEMBL document CHEMBL1201862, “PubChem BioAssay data set” (2004).
The source made the active and inactive calls. For most assays here, no stated cut-off is given here; in the data, actives have a measured IC50 and inactives only a lower limit.

Columns and labels:
Caspase-3 = biological target: T1, Caspase-3 (Homo sapiens, UniProt P42574); assay type: functional;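 further: Dose-response selectivity test against caspase-3 for candidate inhibitors of sentrin-specific proteases (SENPs)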
T1 sequence (P42574 whole entry): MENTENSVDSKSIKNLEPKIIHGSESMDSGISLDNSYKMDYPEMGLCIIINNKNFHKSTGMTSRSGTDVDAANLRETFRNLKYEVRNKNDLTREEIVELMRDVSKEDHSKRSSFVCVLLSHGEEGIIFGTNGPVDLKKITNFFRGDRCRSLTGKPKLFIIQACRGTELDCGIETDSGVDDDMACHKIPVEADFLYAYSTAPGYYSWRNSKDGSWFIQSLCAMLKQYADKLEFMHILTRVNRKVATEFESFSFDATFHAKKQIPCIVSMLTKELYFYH

[1] = biological target: T2, Sentrin-specific protease 7 (Homo sapiens, UniProt Q9BQF6); assay type: functional;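 further: Luminescence-based dose-response confirmation of ultra-high-throughput screening hits, measuring inhibition of SENP7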
T2 sequence (Q9BQF6 whole entry): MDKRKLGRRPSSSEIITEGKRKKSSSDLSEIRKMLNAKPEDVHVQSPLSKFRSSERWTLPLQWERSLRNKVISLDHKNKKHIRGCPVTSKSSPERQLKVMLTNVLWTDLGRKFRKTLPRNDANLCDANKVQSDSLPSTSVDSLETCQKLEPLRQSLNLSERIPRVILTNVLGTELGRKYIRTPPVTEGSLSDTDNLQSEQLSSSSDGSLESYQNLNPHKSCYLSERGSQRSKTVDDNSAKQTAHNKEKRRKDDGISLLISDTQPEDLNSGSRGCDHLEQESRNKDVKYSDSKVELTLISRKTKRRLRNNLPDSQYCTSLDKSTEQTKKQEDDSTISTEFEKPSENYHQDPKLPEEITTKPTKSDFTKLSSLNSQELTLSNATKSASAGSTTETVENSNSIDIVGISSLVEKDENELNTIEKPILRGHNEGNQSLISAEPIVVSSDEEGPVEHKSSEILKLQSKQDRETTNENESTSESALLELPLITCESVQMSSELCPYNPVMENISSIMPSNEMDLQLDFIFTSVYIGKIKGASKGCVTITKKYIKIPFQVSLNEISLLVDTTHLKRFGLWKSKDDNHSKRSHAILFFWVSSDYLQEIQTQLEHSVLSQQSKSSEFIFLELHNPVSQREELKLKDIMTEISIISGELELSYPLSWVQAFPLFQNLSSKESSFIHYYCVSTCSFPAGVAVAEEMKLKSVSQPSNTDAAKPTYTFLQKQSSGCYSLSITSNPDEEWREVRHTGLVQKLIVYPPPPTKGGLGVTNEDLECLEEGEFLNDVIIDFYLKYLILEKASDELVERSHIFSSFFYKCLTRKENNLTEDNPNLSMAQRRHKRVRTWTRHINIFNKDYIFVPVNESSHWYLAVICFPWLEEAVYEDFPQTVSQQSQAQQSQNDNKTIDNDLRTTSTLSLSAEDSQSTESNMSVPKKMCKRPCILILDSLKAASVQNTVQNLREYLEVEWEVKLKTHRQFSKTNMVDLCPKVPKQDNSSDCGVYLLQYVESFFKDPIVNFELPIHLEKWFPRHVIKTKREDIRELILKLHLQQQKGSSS

[2] = biological target: T3, Sentrin-specific protease 8 (Homo sapiens, UniProt Q96LD8); assay type: functional;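 further: luminescence read-out of SENP8 inhibition, dose-response confirmation following an ultra-high-throughput screen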
T3 sequence (Q96LD8 whole entry): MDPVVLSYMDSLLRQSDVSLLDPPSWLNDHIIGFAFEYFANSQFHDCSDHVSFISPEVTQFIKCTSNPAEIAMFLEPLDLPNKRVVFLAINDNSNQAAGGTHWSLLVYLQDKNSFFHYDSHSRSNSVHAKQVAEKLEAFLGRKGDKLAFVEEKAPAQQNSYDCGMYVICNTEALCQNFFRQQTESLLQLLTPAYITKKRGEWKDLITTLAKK

[3] = biological target: Serine/threonine-protein phosphatase PP1-alpha catalytic subunit (Homo sapiens, UniProt P62136); assay: PP1 phosphatase inhibitors, dose response, biochemical, fluorescence (AID 2394)
Chain of Serine/threonine-protein phosphatase PP1-alpha catalytic subunit (P62136 whole entry): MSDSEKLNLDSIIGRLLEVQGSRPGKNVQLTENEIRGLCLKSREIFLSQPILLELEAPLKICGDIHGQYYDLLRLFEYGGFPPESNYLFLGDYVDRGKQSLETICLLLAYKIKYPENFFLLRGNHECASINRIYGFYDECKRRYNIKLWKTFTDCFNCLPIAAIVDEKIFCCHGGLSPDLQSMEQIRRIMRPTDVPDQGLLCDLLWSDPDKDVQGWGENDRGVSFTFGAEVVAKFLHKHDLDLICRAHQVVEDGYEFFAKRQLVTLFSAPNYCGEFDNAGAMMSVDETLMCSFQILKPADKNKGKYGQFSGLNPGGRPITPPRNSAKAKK

[4] = biological target: T4, Sentrin-specific protease 6 (Homo sapiens, UniProt Q9GZR1); assay type: functional;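 further: Luminescence-based dose-response confirmatory assay of SENP6 inhibition, following up an ultra-high-throughput screen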
T4 sequence (Q9GZR1 whole entry): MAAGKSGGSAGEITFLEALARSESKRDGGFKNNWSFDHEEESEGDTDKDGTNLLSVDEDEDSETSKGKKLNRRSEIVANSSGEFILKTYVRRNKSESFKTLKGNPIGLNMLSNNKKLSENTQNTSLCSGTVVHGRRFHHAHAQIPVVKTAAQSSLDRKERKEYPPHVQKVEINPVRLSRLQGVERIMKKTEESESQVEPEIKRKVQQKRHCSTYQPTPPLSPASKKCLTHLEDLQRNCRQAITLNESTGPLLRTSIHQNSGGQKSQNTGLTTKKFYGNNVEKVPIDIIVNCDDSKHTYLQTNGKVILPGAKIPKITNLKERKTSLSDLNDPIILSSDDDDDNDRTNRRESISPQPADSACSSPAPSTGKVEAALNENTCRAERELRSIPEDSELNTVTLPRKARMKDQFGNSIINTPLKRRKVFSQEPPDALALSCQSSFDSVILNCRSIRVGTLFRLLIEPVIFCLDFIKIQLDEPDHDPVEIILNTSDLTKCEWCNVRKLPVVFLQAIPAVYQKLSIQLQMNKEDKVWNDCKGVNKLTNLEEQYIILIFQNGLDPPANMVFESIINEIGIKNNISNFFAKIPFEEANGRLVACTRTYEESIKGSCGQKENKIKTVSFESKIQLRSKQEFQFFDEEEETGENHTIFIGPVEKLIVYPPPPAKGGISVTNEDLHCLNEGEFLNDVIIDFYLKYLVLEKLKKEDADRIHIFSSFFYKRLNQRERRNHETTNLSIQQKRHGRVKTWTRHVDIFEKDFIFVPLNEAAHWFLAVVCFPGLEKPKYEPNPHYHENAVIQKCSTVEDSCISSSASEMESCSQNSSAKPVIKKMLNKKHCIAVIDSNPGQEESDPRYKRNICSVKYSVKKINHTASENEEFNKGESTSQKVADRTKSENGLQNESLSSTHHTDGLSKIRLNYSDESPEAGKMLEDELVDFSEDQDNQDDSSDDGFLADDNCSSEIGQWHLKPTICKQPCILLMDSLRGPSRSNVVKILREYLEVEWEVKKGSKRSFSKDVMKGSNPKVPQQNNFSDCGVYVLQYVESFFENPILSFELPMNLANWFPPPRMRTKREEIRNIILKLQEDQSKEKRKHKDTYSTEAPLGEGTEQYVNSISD

[5] = biological target: Serine/threonine-protein phosphatase (Homo sapiens, UniProt Q9BPW0); assay: PP5 phosphatase inhibitors, dose response, biochemical, fluorescence (AID 2395)
Chain of Serine/threonine-protein phosphatase (Q9BPW0 whole entry): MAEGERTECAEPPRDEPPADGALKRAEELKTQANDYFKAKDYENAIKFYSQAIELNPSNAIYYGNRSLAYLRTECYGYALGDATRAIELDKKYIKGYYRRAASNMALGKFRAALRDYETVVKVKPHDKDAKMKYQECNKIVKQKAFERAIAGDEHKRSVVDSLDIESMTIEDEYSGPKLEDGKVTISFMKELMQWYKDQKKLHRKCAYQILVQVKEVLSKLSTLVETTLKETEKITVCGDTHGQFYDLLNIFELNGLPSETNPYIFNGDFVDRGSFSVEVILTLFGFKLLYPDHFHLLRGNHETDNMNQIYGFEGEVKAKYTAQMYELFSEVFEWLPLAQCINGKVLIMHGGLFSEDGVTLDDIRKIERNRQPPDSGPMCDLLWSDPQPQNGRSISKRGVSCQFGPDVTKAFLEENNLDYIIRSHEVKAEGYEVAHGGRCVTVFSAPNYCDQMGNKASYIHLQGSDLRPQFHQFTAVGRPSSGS

SMILES	IC50 (Caspase-3)	IC50 [1]	IC50 [2]	IC50 [3]	IC50 [4]	IC50 [5]
COc1ccc(/C=N/Nc2cc(N(C)C)nc(N(C)C)n2)cc1	> 100 µM (inactive)	54.5 µM (active)	5.78 µM (active)	> 67 µM (not active)	5.62 µM (active)	4.01 µM (active)
C/C(=N\c1cccc(C)c1)c1sc2ccccc2c1O	17.4 µM (active)	4.75 µM (active)	10.7 µM (active)	–	12.7 µM (active)	–
